Format in all cases: in vivo
In one test the test system is Erysiphe graminis. Put plainly: Effects on Barley powdery mildew (preventive spray test). To be noted: lesions counted seven days after inoculation.
In a further test the test system is Puccinia recondita. Kind of test: Effect on Wheat brown rust (preventive spray test). To be noted: 7 days after inoculation.
The test system of the next test is Phytophthora infestans. To be noted: Tomato late blight, 5 days after inoculation.
The test system of a further test is Pyricularia oryzae. The settings on record: Rice blast, 7 days after inoculation.
The subject of the next test is Chochliobolus miyabeanus. Kind of test: Effect on Rice brown spot (preventive spray test). To be noted: 7 days after inoculation.
The subject of test [1] is Psecidoperonospora cubensis. Put plainly: Effect on Cucumber downy mildew (preventive spray test). The settings on record: 7 days after inoculation.
Where [2] appears, read: conc. of active ingredient 4 ppm.
Setting [3] is: conc. of active ingredient 20 ppm.
The mark [4] stands for this setting: conc. of active ingredient 100 ppm.

“And” between values parts separate entries of the source, which are not always exact repeats. Equal entries are not always repeated. Where two headings read alike, the source gives them in different places.

For the compound `CO/C=C(/C(=O)OC)c1ccccc1COc1ccc2c(c1C)OC(C)C2=NOC` (single isomer, unassigned) [b-4], the “Preventive rate (%)” value is recorded as 98% in the test on Erysiphe graminis (setting [2]); 100% in the test with Erysiphe graminis (setting [3]); 100% in the test on Erysiphe graminis (setting [4]); 100% in the test with Puccinia recondita (setting [2]); 100% in the test on Puccinia recondita (setting [3]); 100% with Puccinia recondita (setting [4]). Further, the “Preventive rate (%)” value came out at 97% with Phytophthora infestans (setting [3]), 97% in the test on Phytophthora infestans (setting [4]), 89% in the test on Pyricularia oryzae (setting [3]) and 95% in the test on Pyricularia oryzae (setting [4]).
Take `COC=C(C(=O)OC)c1ccccc1COc1ccc2c(c1)CCC2=NO` [e-1]: in the test on Chochliobolus miyabeanus (setting [2]), the “Preventive rate (%)” value is reported as 87%.
For `CNC(=O)C(=NOC)c1ccccc1COc1cc2c(cc1C)C(=NOC)C(C)C2` (single isomer, unassigned) [f-11], the “Preventive rate (%)” value in the test on Erysiphe graminis (setting [2]), with Erysiphe graminis (setting [3]), in the test with Erysiphe graminis (setting [4]), in the test on Puccinia recondita (setting [2]), with Puccinia recondita (setting [3]) and in the test with Puccinia recondita (setting [4]) was 100% throughout. Moreover, the “Preventive rate (%)” value (in the test on Phytophthora infestans (setting [2]); with Phytophthora infestans (setting [3]); in the test on Phytophthora infestans (setting [4]); in test [1] (setting [2]); in test [1] (setting [3]); in test [1] (setting [4])) was 100% throughout. Besides, the “Preventive rate (%)” value with Pyricularia oryzae (setting [2]) turned out to be 72%; in the test on Pyricularia oryzae (setting [3]) it was 83%; in the test on Pyricularia oryzae (setting [4]), 100%.
`CNC(=O)C(=NOC)c1ccccc1COc1ccc2c(c1)CCC2=NOCC=CCl` [e-58]: the “Preventive rate (%)” value with Erysiphe graminis (setting [3]) is 100%; in the test on Erysiphe graminis (setting [4]) it was 100%; with Puccinia recondita (setting [3]), 100%; with Puccinia recondita (setting [4]), 100%; in the test on Phytophthora infestans (setting [3]) it was 92% and 98%; in the test with Phytophthora infestans (setting [4]), 100%. Moreover, the “Preventive rate (%)” value in test [1] (setting [2]), in test [1] (setting [3]) and in test [1] (setting [4]) was 100% in each case.
Regarding `C=C(Cl)CON=C1CCOc2c1ccc(OCc1ccccc1C(=NOC)C(=O)NC)c2C` [c-64], the “Preventive rate (%)” value in the test on Erysiphe graminis (setting [3]) is recorded as 96%; in the test on Erysiphe graminis (setting [4]) it was 100%; in the test with Puccinia recondita (setting [2]), 99%; with Puccinia recondita (setting [3]), 99%; in the test on Puccinia recondita (setting [4]), 100%; in the test on Pyricularia oryzae (setting [3]), 80%. Besides, in the test with Pyricularia oryzae (setting [4]), the “Preventive rate (%)” value was determined as 98%.
Turning to `CO/C=C(/C(=O)OC)c1ccccc1COc1ccc2c(c1C)OC(C)C2=NOC` (single isomer, unassigned) [b-5], the “Preventive rate (%)” value in the test with Erysiphe graminis (setting [2]) came to 98%; in the test on Erysiphe graminis (setting [3]) it was 98%; in the test with Erysiphe graminis (setting [4]), 100%; in the test on Puccinia recondita (setting [2]) it was 100%; in the test on Puccinia recondita (setting [3]) it was 100%; in the test with Puccinia recondita (setting [4]) it was 100%. Moreover, the “Preventive rate (%)” value in the test on Phytophthora infestans (setting [3]) was determined as 91%; in the test on Phytophthora infestans (setting [4]), 97%; in the test with Pyricularia oryzae (setting [3]), 84%; in the test on Pyricularia oryzae (setting [4]), 95%.
As to `C=CCON=C1COc2c1ccc(OCc1ccccc1/C(=N\OC)C(=O)NC)c2C` [a-60], the “Preventive rate (%)” value in the test on Erysiphe graminis (setting [3]) turned out to be 100%; in the test on Erysiphe graminis (setting [4]) it was 100%; in the test with Puccinia recondita (setting [2]), 100%; in the test on Puccinia recondita (setting [3]), 100%; in the test with Puccinia recondita (setting [4]), 100%; in the test with Phytophthora infestans (setting [3]), 97%. In addition, the “Preventive rate (%)” value in the test on Phytophthora infestans (setting [4]) was found to be 97%; in test [1] (setting [2]) it was 100%; in test [1] (setting [3]), 100%; in test [1] (setting [4]), 100%; in the test with Pyricularia oryzae (setting [3]), 86%; with Pyricularia oryzae (setting [4]), 91%.
For the compound `CO/C=C(/C(=O)OC)c1ccccc1COc1ccc2c(c1)OCCC2=NOC` [c-2], the “Preventive rate (%)” value is listed as 100% in the test on Erysiphe graminis (setting [3]); 100% with Erysiphe graminis (setting [4]); 93% in the test on Puccinia recondita (setting [2]); 100% in the test on Puccinia recondita (setting [3]); 100% with Puccinia recondita (setting [4]); 84% in the test on Phytophthora infestans (setting [2]). The “Preventive rate (%)” value in the test on Phytophthora infestans (setting [3]) turned out to be 98%; in the test on Phytophthora infestans (setting [4]), 98%; in test [1] (setting [3]) it was 97%; in test [1] (setting [4]) it was 100%.
`C=C(Cl)CON=C1COc2c1ccc(OCc1ccccc1/C(=N\OC)C(=O)NC)c2C` [a-64]: the “Preventive rate (%)” value was 94% in the test with Erysiphe graminis (setting [2]); 98% in the test on Erysiphe graminis (setting [3]); 100% in the test with Erysiphe graminis (setting [4]); 100% in the test with Puccinia recondita (setting [2]); 100% in the test with Puccinia recondita (setting [3]); 100% in the test with Puccinia recondita (setting [4]). Also, the “Preventive rate (%)” value in the test with Phytophthora infestans (setting [3]) was determined as 84%; in the test with Phytophthora infestans (setting [4]), 100%; in test [1] (setting [2]) it was 100%; in test [1] (setting [3]), 100%; in test [1] (setting [4]), 100%.
As to `CNC(=O)C(=NOC)c1ccccc1COc1ccc2c(c1C)CC(C)C2=NOC` (racemic) [f-4], the “Preventive rate (%)” value in test [1] (setting [2]) is listed as 100%; in test [1] (setting [3]), 100%; in test [1] (setting [4]), 100%; in the test on Chochliobolus miyabeanus (setting [2]), 68%; in the test with Chochliobolus miyabeanus (setting [3]) it was 70%; with Chochliobolus miyabeanus (setting [4]) it was 90%.
`COC=C(C(=O)OC)c1ccccc1COc1ccc2c(c1C)OC(C)CC2=NOC` (racemic) [d-8]: the “Preventive rate (%)” value in the test on Erysiphe graminis (setting [2]), in the test on Erysiphe graminis (setting [3]), with Erysiphe graminis (setting [4]), in the test with Puccinia recondita (setting [2]), in the test with Puccinia recondita (setting [3]) and in the test on Puccinia recondita (setting [4]) was 100% throughout. In addition, the entries for the “Preventive rate (%)” value in the test on Pyricularia oryzae (setting [2]), in the test on Pyricularia oryzae (setting [3]) and in the test with Pyricularia oryzae (setting [4]) were 77%, 83% and 100%, respectively.
Regarding `CON=C(C(=O)OC)c1ccccc1COc1ccc2c(c1C)OC(C)(C)CC2=NOC` [d-6], the “Preventive rate (%)” value in the test on Puccinia recondita (setting [3]) is 92%; in the test with Puccinia recondita (setting [4]), 99%; in the test with Pyricularia oryzae (setting [2]) it was 71%; with Pyricularia oryzae (setting [3]), 77%; in the test on Pyricularia oryzae (setting [4]) it was 92%.
As for `CON=C(C(=O)OC)c1ccccc1COc1cc2c(cc1C)C(=NOC)C(C)C2` (single isomer, unassigned) [f-10], the “Preventive rate (%)” value in the test with Phytophthora infestans (setting [3]) came to 97%; in the test with Phytophthora infestans (setting [4]), 98%; in test [1] (setting [4]) it was 100%; with Pyricularia oryzae (setting [2]), 85%; in the test on Pyricularia oryzae (setting [3]), 85%; in the test on Pyricularia oryzae (setting [4]) it was 90%.
With `CCCCON=C1CCOc2c1ccc(OCc1ccccc1C(=NOC)C(=O)NC)c2C` [c-58], the “Preventive rate (%)” value with Erysiphe graminis (setting [3]) was 98%; in the test on Erysiphe graminis (setting [4]), 100%; with Puccinia recondita (setting [2]), 98%; in the test with Puccinia recondita (setting [3]), 100%; in the test with Puccinia recondita (setting [4]), 100%; with Phytophthora infestans (setting [4]), 100%.

The record behind these values is patent publication US6399542B1, “Alkoxyimino-substituted bicyclic compounds compositions containing the same and method of making such compounds” (Agro-Kanesho Co., Ltd., priority 1997, dated 2002).
